The values below come from patent US20160002204A1 (Board of Regents, The University of Texas System, priority 2014, published 2016).

What is called IC50 is the concentration that gives 50% inhibition. One may read the EC50 as the midpoint of the concentration-response curve. The low end stands for an effect from little substance, the high end for a need for much substance.

For experiment [1], the target named is T1, GLS1 (purified recombinant human GAC) (Homo sapiens, UniProt O94925).
T1 sequence (O94925 55-598 isoform O94925-3 limits assumed): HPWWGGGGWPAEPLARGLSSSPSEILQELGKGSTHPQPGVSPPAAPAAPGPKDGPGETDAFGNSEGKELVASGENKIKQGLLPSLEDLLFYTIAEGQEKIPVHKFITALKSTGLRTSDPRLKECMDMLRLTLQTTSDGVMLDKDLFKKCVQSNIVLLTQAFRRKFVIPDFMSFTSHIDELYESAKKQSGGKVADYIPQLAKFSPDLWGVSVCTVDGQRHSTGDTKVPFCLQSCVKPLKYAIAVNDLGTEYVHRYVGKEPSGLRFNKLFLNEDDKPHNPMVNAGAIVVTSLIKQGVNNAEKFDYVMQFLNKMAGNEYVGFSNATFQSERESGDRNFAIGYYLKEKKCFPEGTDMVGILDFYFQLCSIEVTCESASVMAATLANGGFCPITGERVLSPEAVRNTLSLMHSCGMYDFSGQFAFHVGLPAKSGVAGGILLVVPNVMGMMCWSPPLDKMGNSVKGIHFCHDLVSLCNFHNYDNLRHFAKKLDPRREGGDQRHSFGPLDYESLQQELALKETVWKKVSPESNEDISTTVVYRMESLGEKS
Kind of experiment: GLS1 enzymatic activity assay (dual-coupled, Amplex UltraRed/resorufin). It counts as biochemical. An outline of the steps: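 Recombinant human GAC (2 nM) preincubated with 50 mM potassium phosphate, then inhibitor (10 min each, RT); 1 mM glutamine, pH 7.4 Hepes buffer, 1% DMSO. Glutamate coupled via glutamate oxidase/HRP to resorufin (Ex 530/Em 590), kinetic or 20-min endpoint; IC50 by four-parameter logistic fit.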

Experiment [2] concerns A549 cells. Kind of experiment: A549 proliferation (viability) assay, Cell Titer Fluor, 72 hours. It counts as cell-based. The note with it: Homo sapiens. An outline of the steps: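 Seed A549 at 1000 cells/well and culture 24 h. Add compound (final DMSO 0.5%) and incubate 72 h at 37 °C. Add Cell Titer Fluor, mix 15 min, incubate 30 min, read fluorescence and fit EC50 by four-parameter logistic.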

SMILES strings stand for the structures.

For `O=C(CN1CC2CC(C2)C1)Nc1ccn(CCC(F)Cn2cc(C(=O)NCc3cc(C(F)(F)F)ccn3)nn2)c(=O)c1F` (stereo not shown) [Example 415, 1-{4-[4-(2-{3-azabicyclo[3.1.1]heptan-3-yl}acetamido)-3-fluoro-2-oxo-1,2-dihydropyridin-1-yl]-2-fluorobutyl}-N-{[4-(trifluoromethyl)pyridin-2-yl]methyl}-1H-1,2,3-triazole-4-carboxamide], the IC50 in experiment [1] was less than 100 nM. The EC50 in experiment [2] is less than 100 nM.

Consider `O=C(CC1CCCCC1)Nc1ccn(CCCCc2nnc(C(=O)NCc3cc(OC(F)(F)F)ccc3F)s2)c(=O)c1` [Example 460, 5-{4-[4-(2-cyclohexylacetamido)-2-oxo-1,2-dihydropyridin-1-yl]butyl}-N-{[2-fluoro-5-(trifluoromethoxy)phenyl]methyl}-1,3,4-thiadiazole-2-carboxamide], for which the IC50 in experiment [1] is less than 100 nM. In addition, the EC50 in experiment [2] was less than 100 nM.

Take `CC(C)(C)OC(=O)N1CCN(CC(=O)Nc2ccn(CCC(F)Cn3cc(C(N)=O)nn3)c(=O)c2)CC1` (stereo not shown) [Example 407, tert-butyl 4-[({1-[4-(4-carbamoyl-1H-1,2,3-triazol-1-yl)-3-fluorobutyl]-2-oxo-1,2-dihydropyridin-4-yl}carbamoyl)methyl]piperazine-1-carboxylate]: in experiment [1], the IC50 was 500 to 5000 nM. Besides, the EC50 in experiment [2] was greater than 5000 nM.

Turning to `O=C(CN1CCCCC1)Nc1ccn(CCC(F)Cn2cc(C(=O)NCc3cccc(OC(F)(F)F)c3)nn2)c(=O)c1` (stereo not shown) [Example 269, 1-(2-fluoro-4-{2-oxo-4-[2-(piperidin-1-yl)acetamido]-1,2-dihydropyridin-1-yl}butyl)-N-{[3-(trifluoromethoxy)phenyl]methyl}-1H-1,2,3-triazole-4-carboxamide], in experiment [1], the IC50 is less than 100 nM. For the same compound, the half-maximal effective concentration (EC50) in experiment [2] is less than 100 nM.

Regarding `O=C(CC1CC1(F)F)Nc1ccn(CCCCn2cc(C(=O)NCc3cccc(OC(F)(F)F)c3)nn2)c(=O)c1` (stereo not shown) [Example 168, 1-(4-{4-[2-(2,2-difluorocyclopropyl)acetamido]-2-oxo-1,2-dihydropyridin-1-yl}butyl)-N-{[3-(trifluoromethoxy)phenyl]methyl}-1H-1,2,3-triazole-4-carboxamide], the IC50 in experiment [1] was less than 100 nM. The compound further displayed an EC50 in experiment [2] of 500 to 5000 nM.

Take `O=C(NCc1cccc(OC(F)(F)F)c1)c1cn(CC(F)CCn2ccc(COc3cccc(Cl)c3)cc2=O)nn1` (stereo not shown) [Example 475, 1-{4-[4-(3-chlorophenoxymethyl)-2-oxo-1,2-dihydropyridin-1-yl]-2-fluorobutyl}-N-{[3-(trifluoromethoxy)phenyl]methyl}-1H-1,2,3-triazole-4-carboxamide]: the IC50 in experiment [1] was less than 100 nM. In addition, in experiment [2], the EC50 was 500 to 5000 nM.

With `Cc1ccc(CNC(=O)c2nnc(CCCCn3ccc(NC(=O)CC4CCC4)c(F)c3=O)s2)cn1` [Example 464, 5-(4-(4-(2-cyclobutylacetamido)-3-fluoro-2-oxopyridin-1(2H)-yl)butyl)-N-((6-methylpyridin-3-yl)methyl)-1,3,4-thiadiazole-2-carboxamide], the IC50 in experiment [1] is less than 100 nM. In experiment [2], this compound gave an EC50 of less than 100 nM.

Turning to `O=C(Nc1ccn(CCC(F)Cn2cc(C(=O)NCc3cccc(OC(F)(F)F)c3)nn2)c(=O)c1F)C(=O)N1CC2(CCC2)C1` (stereo not shown) [Example 424, 1-{4-[4-(2-{2-azaspiro[3.3]heptan-2-yl}-2-oxoacetamido)-3-fluoro-2-oxo-1,2-dihydropyridin-1-yl]-2-fluorobutyl}-N-{[3-(trifluoromethoxy)phenyl]methyl}-1H-1,2,3-triazole-4-carboxamide], in experiment [1], the IC50 was less than 100 nM. In experiment [2], this compound came in with an EC50 of 100 to 500 nM.

For `O=C(CC1CC1)Nc1ccn(CCCCn2cc(C(=O)NCc3cccc(C(F)(F)F)c3)nn2)c(=O)c1` [Example 154, 1-{4-[4-(2-cyclopropylacetamido)-2-oxo-1,2-dihydropyridin-1-yl]butyl}-N-{[3-(trifluoromethyl)phenyl]methyl}-1H-1,2,3-triazole-4-carboxamide], the IC50 in experiment [1] is less than 100 nM. Further, the EC50 in experiment [2] was in the range of 500 to 5000 nM.

As to `O=C(Nc1ccn(CCC(F)Cn2cc(C(=O)NCc3cccc(OC(F)(F)F)c3)nn2)c(=O)c1F)OC1CCCCC1` (stereo not shown) [Example 346, cyclohexyl N-(3-fluoro-1-{3-fluoro-4-[4-({[3-(trifluoro-methoxy)phenyl]methyl}carbamoyl)-1H-1,2,3-triazol-1-yl]butyl}-2-oxo-1,2-dihydropyridin-4-yl)carbamate], the half-maximal inhibitory concentration (IC50) in experiment [1] is less than 100 nM. In experiment [2], this compound registered an EC50 of less than 100 nM.

As to `O=C(Cc1ccccc1)Nc1ccn(CCC(F)Cn2cc(C(=O)NCc3cncc(C(F)(F)F)c3)nn2)c(=O)c1F` (stereo not shown) [Example 348, 1-{2-fluoro-4-[3-fluoro-2-oxo-4-(2-phenylacetamido)-1,2-dihydropyridin-1-yl]butyl}-N-{[5-(trifluoromethyl)pyridin-3-yl]methyl}-1H-1,2,3-triazole-4-carboxamide], the IC50 in experiment [1] is less than 100 nM. Moreover, in experiment [2], the EC50 is less than 100 nM.

For `NC(=O)c1cn(CC(F)CCn2ccc(NC(=O)CC3CCC3)c(F)c2=O)nn1` (stereo not shown) [Example 391, 1-{4-[4-(2-cyclobutylacetamido)-3-fluoro-2-oxo-1,2-dihydropyridin-1-yl]-2-fluorobutyl}-1H-1,2,3-triazole-4-carboxamide], in experiment [1], the IC50 lay in the range of 500 to 5000 nM. The compound also displayed an EC50 in experiment [2] greater than 5000 nM.

As for `O=C(NCc1cccc(C(F)(F)F)c1)c1cn(CCCCn2ccc(NC(=O)C3CCCCC3)cc2=O)nn1` [Example 152, 1-[4-(4-cyclohexaneamido-2-oxo-1,2-dihydropyridin-1-yl)butyl]-N-{[3-(trifluoromethyl)phenyl]methyl}-1H-1,2,3-triazole-4-carboxamide], in experiment [1], the IC50 is less than 100 nM. This compound also had an EC50 in experiment [2] of 100 to 500 nM.

For the compound `O=C(NCc1cccc(OC(F)(F)F)c1)c1ccn(CCCCn2cc(C(=O)NCc3cccc(OC(F)(F)F)c3)nn2)c(=O)c1` [Example 59, 2-oxo-N-{[3-(trifluoromethoxy)phenyl]methyl}-1-{4-[4-({[3-(trifluoro-methoxy)phenyl]methyl}carbamoyl)-1H-1,2,3-triazol-1-yl]butyl}-1,2-dihydropyridine-4-carboxamide], the IC50 in experiment [1] is less than 100 nM. Further, the 50% effective concentration (EC50) in experiment [2] is 100 to 500 nM.

On to `O=C(CC1CCCCO1)Nc1ccn(CCC(F)Cn2cc(C(=O)NCc3cc(Cl)ccc3F)nn2)c(=O)c1` (stereo not shown) [Example 215, N-[(5-chloro-2-fluorophenyl)methyl]-1-(2-fluoro-4-{4-[2-(oxan-2-yl)acetamido]-2-oxo-1,2-dihydropyridin-1-yl}butyl)-1H-1,2,3-triazole-4-carboxamide], for which, in experiment [1], the IC50 is less than 100 nM. The compound also yielded an EC50 in experiment [2] of 100 to 500 nM.

On to `CO[C@H](C(=O)Nc1ccn(CCC(F)Cn2cc(C(=O)NCc3cccc(OC(F)(F)F)c3)nn2)c(=O)c1F)c1ccccc1` (stereo partly drawn) [Example 285, 1-(2-fluoro-4-{3-fluoro-4-[(2S)-2-methoxy-2-phenylacetamido]-2-oxo-1,2-dihydropyridin-1-yl}butyl)-N-{[3-(trifluoromethoxy)phenyl]methyl}-1H-1,2,3-triazole-4-carboxamide], for which, in experiment [1], the IC50 is less than 100 nM. In experiment [2], the EC50 was less than 100 nM.

Take `O=C(CN1CCOCC1)Nc1ccn(CCC(F)Cn2cc(C(=O)NCc3cccc(OC(F)(F)F)c3)nn2)c(=O)c1` (stereo not shown) [Example 213, 1-(2-fluoro-4-{4-[2-(morpholin-4-yl)acetamido]-2-oxo-1,2-dihydropyridin-1-yl}butyl)-N-{[3-(trifluoromethoxy)phenyl]methyl}-1H-1,2,3-triazole-4-carboxamide]: the IC50 in experiment [1] lay within 100 to 500 nM. This compound also registered an EC50 in experiment [2] of 500 to 5000 nM.

With `O=C(Cc1ccccc1)Nc1ccn(CC(F)CCn2cc(C(=O)NCc3cc(OC(F)(F)F)ccc3F)nn2)c(=O)c1` (stereo not shown) [Example 13, 1-(3-fluoro-4-(2-oxo-4-(2-phenylacetamido)pyridin-1(2H)-yl)butyl)-N-(2-fluoro-5-(trifluoromethoxy)benzyl)-1H-1,2,3-triazole-4-carboxamide], the IC50 in experiment [1] was less than 100 nM. The compound also yielded an EC50 in experiment [2] of less than 100 nM.

As for `Cc1ccc(CNC(=O)c2cn(CC(F)CCn3ccc(NC(=O)CC4CCSCC4)cc3=O)nn2)cn1` (stereo not shown) [Example 198, 1-(2-fluoro-4-{2-oxo-4-[2-(thian-4-yl)acetamido]-1,2-dihydropyridin-1-yl}butyl)-N-[(6-methylpyridin-3-yl)methyl]-1H-1,2,3-triazole-4-carboxamide], the IC50 in experiment [1] was less than 100 nM. The EC50 in experiment [2] is 100 to 500 nM.

Consider `N#CC1CCN(CC(=O)Nc2ccn(CCC(F)Cn3cc(C(=O)NCc4cccc(OC(F)(F)F)c4)nn3)c(=O)c2)CC1` (stereo not shown) [Example 256, 1-(4-{4-[2-(4-cyanopiperidin-1-yl)acetamido]-2-oxo-1,2-dihydropyridin-1-yl}-2-fluorobutyl)-N-{[3-(trifluoromethoxy)phenyl]methyl}-1H-1,2,3-triazole-4-carboxamide], for which, in experiment [1], the IC50 was less than 100 nM. Further, the EC50 in experiment [2] lay within 500 to 5000 nM.
